Measurements reported in patent US10294202B2, “Pyrrolidinones as herbicides” (FMC Corporation, priority 2013, dated 2019).

How the values were obtained:
[1] = system: barnyardgrass; assay: Test A pre-/postemergence herbicide test; format: in vivo, Echinochloa crus-galli
Outline: (§1)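 Visual injury ratings, 0 = no effect, 100 = complete control, taken ~10 days after treatment against untreated greenhouse controls. Preemergence: directed soil spray onto seeded loam/sand pots. Postemergence: spray onto plants at one- to two-leaf stage, 2–10 cm tall.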

[2] = system: giant foxtail; assay: Test A pre-/postemergence herbicide test; format: in vivo, Setaria faberii
Outline: as §1

[3] = system: ducksalad; assay: Test B flooded paddy test; format: in vivo, Heteranthera limosa; conditions: 500 g ai/ha, Flood; scale of 0 to 100 where 0 is no effect and 100 is complete control
Outline: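 Plants were grown to the 2-leaf stage, then pots were flooded to 3 cm above the soil and compound was applied directly into the paddy water, with that depth held throughout. After 13 to 15 days in a greenhouse, injury was rated visually against untreated controls on a 0 to 100 scale (100 = complete control).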

[4] = system: ryegrass, Italian; assay: Test C pre-/postemergence herbicide test; format: in vivo, Lolium multiflorum
Outline: (§2)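 Pre- and postemergence greenhouse screen. Preemergence treatment went onto freshly planted seeds in loam–sand soil; postemergence treatment went onto plants 2 to 18 cm tall at the 1- to 4-leaf stage in sphagnum peat/vermiculite medium. Scoring at 13 to 15 days used a 0–100 control scale.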

[5] = system: corn; assay: Test C pre-/postemergence herbicide test; format: in vivo, Zea mays
Outline: as §2

[6] = system: crabgrass, large; assay: Test C pre-/postemergence herbicide test; format: in vivo, Digitaria sanguinalis
Outline: as §2

[7] = system: johnsongrass; assay: Test C pre-/postemergence herbicide test; format: in vivo, Sorghum halepense
Outline: as §2

[8] = system: lambsquarters; assay: Test C pre-/postemergence herbicide test; format: in vivo, Chenopodium album
Outline: as §2

[9] = system: nutsedge, yellow; assay: Test C pre-/postemergence herbicide test; format: in vivo, Cyperus esculentus
Outline: as §2

[10] = system: pigweed; assay: Test C pre-/postemergence herbicide test; format: in vivo, Amaranthus retroflexus
Outline: as §2

[11] = system: soybean; assay: Test C pre-/postemergence herbicide test; format: in vivo, Glycine max
Outline: as §2

[12] = Postemergence, 125 g ai/ha, visual rating on 0 to 100 scale (0 no effect, 100 complete control), approx. 10 days
[13] = Postemergence, 500 g ai/ha, 0 to 100 scale (0 no effect, 100 complete control)
[14] = Preemergence, 125 g ai/ha, 0 to 100 scale where 0 is no effect and 100 is complete control
[15] = Preemergence, 500 g ai/ha, visual rating on 0 to 100 scale (0 no effect, 100 complete control)
[16] = Postemergence, 31 g ai/ha, scale 0 to 100 (0 no effect, 100 complete control)
[17] = Postemergence, 62 g ai/ha, scale 0 (no effect) to 100 (complete control)
[18] = Postemergence, 125 g ai/ha, scale 0 to 100 (0 no effect, 100 complete control)
[19] = Postemergence, 250 g ai/ha, scale 0 to 100 (0 no effect, 100 complete control)
[20] = Preemergence, 31 g ai/ha, scale 0 to 100, 0 is no effect and 100 is complete control
[21] = Preemergence, 62 g ai/ha, scale 0 to 100 (0 no effect, 100 complete control)
[22] = Preemergence, 125 g ai/ha, scale 0 to 100 (0 no effect, 100 complete control)

Structure (SMILES): CN1CC(c2ccc(F)c(F)c2)C(C(=O)Nc2cccc(F)c2F)C1=O (centres unmarked) [Compound 303]
- Plant response rating, Barnyardgrass [1, 12]: 80
- Plant response rating, Barnyardgrass [1, 13]: 90
- Plant response rating, Barnyardgrass [1, 14]: 90
- Barnyardgrass plant response rating [1, 15]: 90
- Plant response rating, Foxtail, Giant [2, 12]: 80
- Plant response rating, Foxtail, Giant [2, 13]: 80
- Plant response rating, Foxtail, Giant [2, 14]: 90
- Foxtail, Giant plant response rating [2, 15]: 90
- Plant response rating, Ducksalad [3]: 100
- Plant response rating, Ryegrass, Italian [4, 16]: 0
- Plant response rating, Ryegrass, Italian [4, 17]: 0
- Plant response rating, Ryegrass, Italian [4, 18]: 0
- Plant response rating, Ryegrass, Italian [4, 19]: 5
- Ryegrass, Italian plant response rating [4, 20]: 30
- Ryegrass, Italian plant response rating [4, 21]: 35
- Plant response rating, Ryegrass, Italian [4, 22]: 70
- Plant response rating (scale of 0 to 100), Ryegrass, Italian ([4]; Preemergence, 250 g ai/ha): 75
- Plant response rating, Corn [5, 16]: 0
- Plant response rating, Corn [5, 17]: 0
- Plant response rating, Corn [5, 18]: 0
- Plant response rating, Corn [5, 19]: 15
- Corn plant response rating [5, 20]: 10
- Corn plant response rating [5, 21]: 20
- Plant response rating, Corn [5, 22]: 35
- Plant response rating (scale of 0 to 100), Corn ([5]; Preemergence, 250 g ai/ha): 45
- Plant response rating, Crabgrass, Large [6, 16]: 0
- Plant response rating, Crabgrass, Large [6, 17]: 40
- Plant response rating, Crabgrass, Large [6, 18]: 65
- Plant response rating, Crabgrass, Large [6, 19]: 90
- Crabgrass, Large plant response rating [6, 20]: 95
- Crabgrass, Large plant response rating [6, 21]: 98
- Plant response rating, Crabgrass, Large [6, 22]: 98
- Plant response rating (scale of 0 to 100), Crabgrass, Large ([6]; Preemergence, 250 g ai/ha): 100
- Plant response rating, Johnsongrass [7, 16]: 0
- Plant response rating, Johnsongrass [7, 17]: 0
- Plant response rating, Johnsongrass [7, 18]: 0
- Plant response rating, Johnsongrass [7, 19]: 5
- Johnsongrass plant response rating [7, 20]: 0
- Johnsongrass plant response rating [7, 21]: 55
- Plant response rating, Johnsongrass [7, 22]: 65
- Plant response rating (scale of 0 to 100), Johnsongrass ([7]; Preemergence, 250 g ai/ha): 80
- Plant response rating, Lambsquarters [8, 16]: 35
- Plant response rating, Lambsquarters [8, 17]: 85
- Plant response rating, Lambsquarters [8, 18]: 65
- Plant response rating, Lambsquarters [8, 19]: 80
- Lambsquarters plant response rating [8, 20]: 55
- Lambsquarters plant response rating [8, 21]: 60
- Plant response rating, Lambsquarters [8, 22]: 65
- Plant response rating (scale of 0 to 100), Lambsquarters ([8]; Preemergence, 250 g ai/ha): 80
- Plant response rating, Nutsedge, Yellow [9, 16]: 0
- Plant response rating, Nutsedge, Yellow [9, 17]: 0
- Plant response rating, Nutsedge, Yellow [9, 18]: 0
- Plant response rating, Nutsedge, Yellow [9, 19]: 0
- Nutsedge, Yellow plant response rating [9, 20]: 0
- Nutsedge, Yellow plant response rating [9, 21]: 0
- Plant response rating, Nutsedge, Yellow [9, 22]: 0
- Plant response rating (scale of 0 to 100), Nutsedge, Yellow ([9]; Preemergence, 250 g ai/ha): 25
- Plant response rating, Pigweed [10, 16]: 0
- Plant response rating, Pigweed [10, 17]: 0
- Plant response rating, Pigweed [10, 18]: 10
- Plant response rating, Pigweed [10, 19]: 25
- Pigweed plant response rating [10, 20]: 35
- Pigweed plant response rating [10, 21]: 55
- Plant response rating, Pigweed [10, 22]: 65
- Plant response rating (scale of 0 to 100), Pigweed ([10]; Preemergence, 250 g ai/ha): 80
- Plant response rating, Soybean [11, 16]: 0
- Plant response rating, Soybean [11, 17]: 0
- Plant response rating, Soybean [11, 18]: 0
- Plant response rating, Soybean [11, 19]: 0
- Soybean plant response rating [11, 20]: 0
- Soybean plant response rating [11, 21]: 0
- Plant response rating, Soybean [11, 22]: 0
- Plant response rating (scale of 0 to 100), Soybean ([11]; Preemergence, 250 g ai/ha): 20

Structure (SMILES): CN1CC(c2cccc(C(F)(F)F)c2)C(C(=O)Nc2cccc(F)c2F)C1=O (centres unmarked) [Compound 305]
- Plant response rating, Barnyardgrass [1, 12]: 80
- Plant response rating, Barnyardgrass [1, 13]: 90
- Plant response rating, Barnyardgrass [1, 14]: 80
- Barnyardgrass plant response rating [1, 15]: 90
- Plant response rating, Foxtail, Giant [2, 12]: 80
- Plant response rating, Foxtail, Giant [2, 13]: 80
- Plant response rating, Foxtail, Giant [2, 14]: 90
- Foxtail, Giant plant response rating [2, 15]: 90
- Plant response rating, Ducksalad [3]: 100
- Plant response rating, Ryegrass, Italian [4, 16]: 0
- Plant response rating, Ryegrass, Italian [4, 17]: 0
- Plant response rating, Ryegrass, Italian [4, 18]: 0
- Plant response rating, Ryegrass, Italian [4, 19]: 45
- Ryegrass, Italian plant response rating [4, 20]: 15
- Ryegrass, Italian plant response rating [4, 21]: 50
- Plant response rating, Ryegrass, Italian [4, 22]: 50
- Plant response rating (scale of 0 to 100), Ryegrass, Italian ([4]; Preemergence, 250 g ai/ha): 80
- Plant response rating, Corn [5, 16]: 0
- Plant response rating, Corn [5, 17]: 5
- Plant response rating, Corn [5, 18]: 40
- Plant response rating, Corn [5, 19]: 45
- Corn plant response rating [5, 20]: 65
- Corn plant response rating [5, 21]: 75
- Plant response rating, Corn [5, 22]: 75
- Plant response rating (scale of 0 to 100), Corn ([5]; Preemergence, 250 g ai/ha): 80
- Plant response rating, Crabgrass, Large [6, 16]: 40
- Plant response rating, Crabgrass, Large [6, 17]: 55
- Plant response rating, Crabgrass, Large [6, 18]: 75
- Plant response rating, Crabgrass, Large [6, 19]: 80
- Crabgrass, Large plant response rating [6, 20]: 95
- Crabgrass, Large plant response rating [6, 21]: 95
- Plant response rating, Crabgrass, Large [6, 22]: 90
- Plant response rating (scale of 0 to 100), Crabgrass, Large ([6]; Preemergence, 250 g ai/ha): 95
- Plant response rating, Johnsongrass [7, 16]: 0
- Plant response rating, Johnsongrass [7, 17]: 0
- Plant response rating, Johnsongrass [7, 18]: 20
- Plant response rating, Johnsongrass [7, 19]: 20
- Johnsongrass plant response rating [7, 20]: 80
- Johnsongrass plant response rating [7, 21]: 85
- Plant response rating, Johnsongrass [7, 22]: 90
- Plant response rating (scale of 0 to 100), Johnsongrass ([7]; Preemergence, 250 g ai/ha): 90
- Plant response rating, Lambsquarters [8, 16]: 60
- Plant response rating, Lambsquarters [8, 17]: 35
- Plant response rating, Lambsquarters [8, 18]: 50
- Plant response rating, Lambsquarters [8, 19]: 65
- Lambsquarters plant response rating [8, 20]: 60
- Lambsquarters plant response rating [8, 21]: 70
- Plant response rating, Lambsquarters [8, 22]: 70
- Plant response rating (scale of 0 to 100), Lambsquarters ([8]; Preemergence, 250 g ai/ha): 75
- Plant response rating, Nutsedge, Yellow [9, 16]: 0
- Plant response rating, Nutsedge, Yellow [9, 17]: 0
- Plant response rating, Nutsedge, Yellow [9, 18]: 0
- Plant response rating, Nutsedge, Yellow [9, 19]: 0
- Nutsedge, Yellow plant response rating [9, 20]: 0
- Nutsedge, Yellow plant response rating [9, 21]: 0
- Plant response rating, Nutsedge, Yellow [9, 22]: 0
- Plant response rating (scale of 0 to 100), Nutsedge, Yellow ([9]; Preemergence, 250 g ai/ha): 100
- Plant response rating, Pigweed [10, 16]: 55
- Plant response rating, Pigweed [10, 17]: 60
- Plant response rating, Pigweed [10, 18]: 65
- Plant response rating, Pigweed [10, 19]: 65
- Pigweed plant response rating [10, 20]: 10
- Pigweed plant response rating [10, 21]: 70
- Plant response rating, Pigweed [10, 22]: 80
- Plant response rating (scale of 0 to 100), Pigweed ([10]; Preemergence, 250 g ai/ha): 85
- Plant response rating, Soybean [11, 16]: 10
- Plant response rating, Soybean [11, 17]: 0
- Plant response rating, Soybean [11, 18]: 0
- Plant response rating, Soybean [11, 19]: 0
- Soybean plant response rating [11, 20]: 0
- Soybean plant response rating [11, 21]: 0
- Plant response rating, Soybean [11, 22]: 0
- Plant response rating (scale of 0 to 100), Soybean ([11]; Preemergence, 250 g ai/ha): 0
